For one series, the system named is PPMS or SPMS. To be noted: five years (60 months) after start; 200 mg then 300 mg twice a day; baseline EDSS 4.0.
For another series, the system named is TNFalpha. To be noted: add on to standard therapy, acute phase RRMS patients; cited from earlier work.
The next series concerns neuronal damage. To be noted: low concentrations in vitro; cited from earlier work.
Another series deals with IL-6. Conditions: mouse, in vivo. The procedure:
(§1) Form II has earlier been tested for its effects on circulating levels of TNF-alpha and IL-6 2 and 4 hours after administration of a sublethal dose of LPS in CD1 mice. Therefore, Form II was administered i.p. at the dose of 0.5, 1.5 and 15.0 mg/kg 15 minutes before LPS challenge.

The test system of another series is TNF-alpha. To be noted: mouse, in vivo. The procedure:
as §1

The test system of the next series is inflammatory cytokines. Conditions: mouse, in vivo. The procedure:
as §1

For series [1], the system named is adjuvant induced arthritis. Conditions: rat, in vivo.
Experimental: Rats were evaluated for arthritis daily by an observer unaware of the treatment according to a macroscopic scoring system. An arthritis index was calculated for each rat by summing the scores for the individual paws.
For series [2] the following is noted: depending on compound, dosage and formulation; cited from earlier work.

Experimental for PPMS or SPMS: EDSS determination is then performed every 6 months. […] Thus, the dosage is increased to 300 mg twice a day. […] No dosage adjustment is necessary. […] The next treatment round might vary in dosages used and duration of the treatments depending on disease progression.

The molecule `Nc1cccc2c(=O)[nH][nH]c(=O)c12.[Na]` [5-amino-2,3-dihydro-1,4-phthalazinedione sodium salt] had a disability progression in the series with PPMS or SPMS of 0.5 EDSS points. Moreover, in the series with TNFalpha, the “downregulation of TNFalpha” value is given as “promising”. The “neuronal damage in neurodegenerative diseases” value in the series on neuronal damage was “prevent neuronal damage”.
For `Nc1cccc2c(=O)[nH][nH]c(=O)c12.[Na]` [Form II, 5-amino-2,3-dihydro-1,4-phthalazinedione sodium salt], in the series with IL-6, the “Downregulation of IL-6 compared to vehicle” value is listed as “significant”, the “Downregulation of IL-6 significant compared to vehicle” value is given as “not” and the “dose with best efficacy in down-regulation of IL-6” value is listed as 0.5 mg/kg. In addition, in the series with TNF-alpha, the “Downregulation of TNF-alpha compared to vehicle” value is given as “significant”, the “Downregulation of TNF-alpha significant compared to vehicle” value is reported as “not” and the “dose with best efficacy in down-regulation of TNF-alpha” value was determined as 0.5 mg/kg. In addition, the “blood levels of inflammatory cytokines provoked by sublethal dose of LPS” value in the series with inflammatory cytokines was “significantly reduced”.
As to `Nc1cccc2c(=O)[nH][nH]c(=O)c12.[Na]` [Form I, 5-amino-2,3-dihydro-1,4-phthalazinedione sodium salt], in the series on inflammatory cytokines (ip), the effective dosage confirmed amounted to 0.5 mg/kg. The “effect when applied orally” value with inflammatory cytokines (po) was “there was an effect”. Also, in series [1], the arthritic score entry is “significantly reduced” and the most effective dose entry is recorded as “medium”. For the same molecule, the “cumulative score of the disease” value in series [1] (ip, 1 mg/kg) was “reduce significantly”.
Turning to `Nc1cccc2c(=O)[nH][nH]c(=O)c12` [5-amino-2,3-dihydro-1,4-phthalazinedione], the half-life entry in series [2] is “several hours”.

The record behind these values is patent publication US11007192B2, “Use of 5-amino-2,3-dihydro-1,4-phthalazinedione in the treatment of chronic progressive multiple sclerosis” (METRIOPHARM AG, priority 2016, dated 2021).
